# Assay results: patent US6825170B2, “6-O-acyl ketolide antibacterials” (Ortho-McNeil Pharmaceutical, Inc., priority 2001, dated 2004)
# What was measured:
# Assay in all cases: MIC, microdilution broth method (NCCLS)
# Assay type in all cases: cell-based
# Settings in all cases: 35° C., 16-20 hours
# S. pneumoniae ATCC49619 = test system: S. pneumoniae ATCC49619
# Experimental: (§1) Minimal inhibitory concentration (MIC) has been an indicator of in vitro antibacterial activity widely used in the art. The in vitro antimicrobial activity of the compounds was determined by the microdilution broth method following the test method from the National Committee for Clinical Laboratory Standards (NCCLS). This method is described in the NCCLS Document M7-A4, Vol.17, No.2, “Methods for Dilution Antimicrobial Susceptibility Test for Bacteria that Grow Aerobically—Fourth Edition”, which is incorporated herein by reference.
# (§2) In this method two-fold serial dilutions of drug in cation adjusted Mueller-Hinton broth are added to wells in microdilution trays. The test organisms are prepared by adjusting the turbidity of actively growing broth cultures so that the final concentration of test organism after it is added to the wells is approximately 5×10^4 CFU/well.
# (§3) Following inoculation of the microdilution trays, the trays are incubated at 35° C. for 16-20 hours and then read. […] The amount of growth in the wells containing the test compound is compared with the amount of growth in the growth-control wells (no test compound) used in each tray. As set forth in Table 1, compounds of the present invention were tested against a variety of Gram positive and Gram negative pathogenic bacteria resulting in a range of activities depending on the organism tested.
# H. influenzae ATCC49247 = test system: H. influenzae ATCC49247
# Experimental: as §1, §2, §3
# E. faecalis ATCC29212 = test system: E. faecalis ATCC29212
# Experimental: as §1, §2, §3
# S. aureus ATCC29213 = test system: S. aureus ATCC29213
# Experimental: as §1, §2, §3
SMILES,MIC (D: S. pneumoniae ATCC49619) (S. pneumoniae ATCC49619),MIC (E: H. influenzae ATCC49247) (H. influenzae ATCC49247) [µg/mL],MIC (C: E. faecalis ATCC29212) (E. faecalis ATCC29212) [µg/mL],MIC (B: S. aureus ATCC29213) (S. aureus ATCC29213) [µg/mL]
CCC1OC(=O)C(C)C(=O)C(C)C(OC2OC(C)CC(N(C)C)C2O)C(C)(OC(=O)OCC=Cc2ccc(-n3cncn3)c(F)c2)CC(C)C(=O)C(C)C2NC(=O)OC12C (stereo not drawn) [Compound 31],0.03 µg/mL,1,0.06,0.12
CCC1OC(=O)C(C)C(=O)C(C)C(OC2OC(C)CC(N(C)C)C2O)C(C)(OC(=O)OCC=Cc2cnn(-c3ccccc3)c2)CC(C)C(=O)C(C)C2NC(=O)OC12C (stereo not drawn) [Compound 33],0.06 µg/mL,1,0.12,0.25
CCC1OC(=O)C(C)C(=O)C(C)C(OC2OC(C)CC(N(C)C)C2O)C(C)(OC(=O)OCC=Cc2cn(-c3ncccn3)cn2)CC(C)C(=O)C(C)C2NC(=O)OC12C (stereo not drawn) [Compound 34],0.03 µg/mL,1,0.12,0.25
CCC1OC(=O)C(C)C(=O)C(C)C(OC2OC(C)CC(N(C)C)C2O)C(C)(OC(=O)OCC=Cc2cn(-c3cnccn3)cn2)CC(C)C(=O)C(C)C2NC(=O)OC12C (stereo not drawn) [Compound 35],0.03 µg/mL,1,0.12,0.25
CCC1OC(=O)C(C)C(=O)C(C)C(OC2OC(C)CC(N(C)C)C2O)C(C)(OC(=O)OCC=Cc2cnc3ccccc3c2)CC(C)C(=O)C(C)C2NC(=O)OC12C (stereo not drawn) [Compound 37],≦0.015 μg/mL,0.5,0.06,0.12
CCC1OC(=O)C(C)C(=O)C(C)C(OC2OC(C)CC(N(C)C)C2O)C(C)(OC(=O)OCC=Cc2ccc(-c3ncco3)cc2)CC(C)C(=O)C(C)C2NC(=O)OC12C (stereo not drawn) [Compound 47],≦0.015 μg/mL,0.5,0.06,0.12
CCC1OC(=O)C(C)C(=O)C(C)C(OC2OC(C)CC(N(C)C)C2O)C(C)(OC(=O)OCC=Cc2ccc(-c3cnco3)cc2)CC(C)C(=O)C(C)C2NC(=O)OC12C (stereo not drawn) [Compound 48],0.03 µg/mL,1,0.12,0.12
CCC1OC(=O)C(C)C(=O)C(C)C(OC2OC(C)CC(N(C)C)C2O)C(C)(OC(=O)OCC=Cc2ccc(-c3nccs3)cc2)CC(C)C(=O)C(C)C2NC(=O)OC12C (stereo not drawn) [Compound 49],0.03 µg/mL,1,0.12,0.12
CCC1OC(=O)C(C)C(=O)C(C)C(OC2OC(C)CC(N(C)C)C2O)C(C)(OC(=O)OCC=Cc2ccc(-c3cccs3)cc2)CC(C)C(=O)C(C)C2NC(=O)OC12C (stereo not drawn) [Compound 50],0.06 µg/mL,2,0.5,1
CCC1OC(=O)C(C)C(=O)C(C)C(OC2OC(C)CC(N(C)C)C2O)C(C)(OC(=O)OCC=Cc2ccc(-c3nnco3)cc2)CC(C)C(=O)C(C)C2NC(=O)OC12C (stereo not drawn) [Compound 52],≦0.015 μg/mL,1,0.06,0.12
CCC1OC(=O)C(C)C(=O)C(C)C(OC2OC(C)CC(N(C)C)C2O)C(C)(OC(=O)OCC=Cc2nc3ccccc3n2C)CC(C)C(=O)C(C)C2NC(=O)OC12C (stereo not drawn) [Compound 55],0.03 µg/mL,1,0.12,0.25
CCC1OC(=O)C(C)C(=O)C(C)C(OC2OC(C)CC(N(C)C)C2O)C(C)(OC(=O)OCC=Cc2ccc(-c3ncc(Br)cn3)cc2)CC(C)C(=O)C(C)C2NC(=O)OC12C (stereo not drawn) [Compound 56],0.06 µg/mL,2,0.25,0.5
